US8124566B2 (priority 2004, dated 2012)
Where “and” joins values, the source holds several entries; their conditions need not be identical. Equal entries are not always repeated. Where two headings read alike, the source gives them in different places.

How the values were obtained:
Format in all cases: cell-based
Conditions in all cases: active ingredient alone
[1] = test system: Pyricularia oryzae
[2] = test system: Venturia inaequalis; test: Fungal growth assay, Venturia inaequalis (Example B-6 a)
[3] = test system: Leptosphaeria nodorum; test: Fungal growth assay, Leptosphaeria nodorum (Example B-8)
[4] = test system: Alternaria solani; test: Fungal growth assay, Alternaria solani (Example B-4 a)
[5] = test system: Botrytis cinerea; test: Fungal growth assay, Botrytis cinerea (Example B-1 a)
[6] = test system: Septoria tritici; test: Fungal growth assay, Septoria tritici (Example B-2 a)
[7] = test system: Pyrenophora teres; test: Fungal growth assay, Pyrenophora teres (Example B-5 a)
[8] = test system: Pythium ultimum; test: Fungal growth assay, Pythium ultimum (Example B-7)

## Cc1cc(C2CC2)nc(Nc2ccccc2)n1 [Cyprodinil]
[1]; 0.002 ppm [mg/L]
  Observed control in % (% Cobs): 0%
[1]; 0.007 ppm [mg/L]
  Observed control in % (% Cobs): 0%
[1]; 0.067 ppm [mg/L]
  Observed control in % (% Cobs): 0%

## CC1CCN(c2c(-c3c(F)cc(F)cc3F)c(Cl)nc3ncnn23)CC1 [Cpd B-1]
[2]; 0.0008 ppm [mg/L]
  Observed control in % (% Cobs): 17%
[2]; 0.0025 ppm [mg/L]
  Observed control in % (% Cobs): 32%
[2]; 0.0074 ppm [mg/L]
  Observed control in % (% Cobs): 61%

## CC1COC(Cn2cncn2)(c2ccc(Oc3ccc(Cl)cc3)cc2Cl)O1 (stereo not drawn) [Difenoconazole]
[3]; 0.0008 ppm [mg/L]
  Observed control in % (% Cobs): 5%
[3]; 0.0025 ppm [mg/L]
  Observed control in % (% Cobs): 16%
[3]; 0.0074 ppm [mg/L]
  Observed control in % (% Cobs): 73%

## N#Cc1c(Cl)c(Cl)c(Cl)c(C#N)c1Cl [Chlorothalonil]
[1]; 0.002 ppm [mg/L]
  Observed control in % (% Cobs): 0%
[1]; 0.007 ppm [mg/L]
  Observed control in % (% Cobs): 0%
[1]; 0.067 ppm [mg/L]
  Observed control in % (% Cobs): 0%

## N#Cc1c[nH]cc1-c1cccc2c1OC(F)(F)O2 [Fludioxonil]
[4]; 0.022 ppm [mg/L]
  Observed control in % (% Cobs): 1%
[4]; 0.067 ppm [mg/L]
  Observed control in % (% Cobs): 24%

## CO/C=C(/C(=O)OC)c1ccccc1Oc1cc(Oc2ccccc2C#N)ncn1 [Azoxystrobin]
[5]; 0.60 ppm [mg/L]
  Observed control in % (% Cobs): 7%
[5]; 1.80 ppm [mg/L]
  Observed control in % (% Cobs): 14%

## CC(C)C1C2CCC1c1c(NC(=O)c3cn(C)nc3C(F)F)cccc12 (racemic) [Cpd Ic]
[6]; 0.0001 ppm [mg/L]
  Observed control in % (% Cobs): 1%
[6]; 0.0008 ppm [mg/L]
  Observed control in % (% Cobs): 13%
[2]; 0.0222 ppm [mg/L]
  Observed control in % (% Cobs): 6% and 10%
[2]; 0.0667 ppm [mg/L]
  Observed control in % (% Cobs): 18%
[2]; 0.2000 ppm [mg/L]
  Observed control in % (% Cobs): 59%
[7]; 0.0667 ppm [mg/L]
  Observed control in % (% Cobs): 37%
[7]; 0.2000 ppm [mg/L]
  Observed control in % (% Cobs): 55%
[4]; 0.0025 ppm [mg/L]
  Observed control in % (% Cobs): 8%
[4]; 0.0074 ppm [mg/L]
  Observed control in % (% Cobs): 27%
[8]; 0.0667 ppm [mg/L]
  Observed control in % (% Cobs): 0%
[8]; 0.2000 ppm [mg/L]
  Observed control in % (% Cobs): 0%
[8]; 0.6000 ppm [mg/L]
  Observed control in % (% Cobs): 0%
[1]; 0.0001 ppm [mg/L]
  Observed control in % (% Cobs): 2%
[1]; 0.0008 ppm [mg/L]
  Observed control in % (% Cobs): 3%
[1]; 0.0025 ppm [mg/L]
  Observed control in % (% Cobs): 13% and 6%
[1]; 0.0074 ppm [mg/L]
  Observed control in % (% Cobs): 33%
[1]; 0.0222 ppm [mg/L]
  Observed control in % (% Cobs): 59%
[5]; 0.0025 ppm [mg/L]
  Observed control in % (% Cobs): 0%
[5]; 0.0074 ppm [mg/L]
  Observed control in % (% Cobs): 10%
[5]; 0.0222 ppm [mg/L]
  Observed control in % (% Cobs): 23% and 18% and 12%
[5]; 0.0667 ppm [mg/L]
  Observed control in % (% Cobs): 35% and 28%
[5]; 0.2000 ppm [mg/L]
  Observed control in % (% Cobs): 71%
[3]; 0.0222 ppm [mg/L]
  Observed control in % (% Cobs): 0%
[3]; 0.0667 ppm [mg/L]
  Observed control in % (% Cobs): 0%
[3]; 0.2000 ppm [mg/L]
  Observed control in % (% Cobs): 0%

## Fc1ccc([C@]2(Cn3cncn3)O[C@H]2c2ccccc2Cl)cc1 (racemic) [Epoxiconazole]
[3]; 0.0025 ppm [mg/L]
  Observed control in % (% Cobs): 9%
[3]; 0.0222 ppm [mg/L]
  Observed control in % (% Cobs): 39%

## CO/C=C(/C(=O)OC)c1ccccc1COc1cccc(C(F)(F)F)n1 [Picoxystrobin]
[5]; 0.0222 ppm [mg/L]
  Observed control in % (% Cobs): 0%
[5]; 0.0667 ppm [mg/L]
  Observed control in % (% Cobs): 6%
[5]; 0.2000 ppm [mg/L]
  Observed control in % (% Cobs): 12%
[5]; 0.6000 ppm [mg/L]
  Observed control in % (% Cobs): 20%

## CCCC1COC(Cn2cncn2)(c2ccc(Cl)cc2Cl)O1 (stereo not drawn) [Propiconazole]
[6]; 0.007 ppm [mg/L]
  Observed control in % (% Cobs): 0%
[6]; 0.067 ppm [mg/L]
  Observed control in % (% Cobs): 7%

## OC(Cc1ccccc1Cl)(Cn1nc[nH]c1=S)C1(Cl)CC1 (stereo not drawn) [Prothioconazole]
[5]; 0.0222 ppm [mg/L]
  Observed control in % (% Cobs): 8%
[5]; 0.0667 ppm [mg/L]
  Observed control in % (% Cobs): 17%
[5]; 0.2000 ppm [mg/L]
  Observed control in % (% Cobs): 52%

## CC(C1CC1)C(O)(Cn1cncn1)c1ccc(Cl)cc1 (stereo not drawn) [Cyproconazole]
[1]; 0.022 ppm [mg/L]
  Observed control in % (% Cobs): 0%
[1]; 0.200 ppm [mg/L]
  Observed control in % (% Cobs): 0%

## C#CCOc1ccc(CCNC(=O)C(OCC#C)c2ccc(Cl)cc2)cc1OC (stereo not drawn) [Cpd F-1]
[7]; 5.4 ppm [mg/L]
  Observed control in % (% Cobs): 2%
[7]; 16.2 ppm [mg/L]
  Observed control in % (% Cobs): 6%

## CC(Cc1ccc(C(C)(C)C)cc1)CN1CCCCC1 (stereo not drawn) [Fenpropidin]
[8]; 5.4000 ppm [mg/L]
  Observed control in % (% Cobs): 11%
[8]; 16.2000 ppm [mg/L]
  Observed control in % (% Cobs): 34%

## CC(Cc1ccc(C(C)(C)C)cc1)CN1C[C@@H](C)O[C@@H](C)C1 (stereo partly drawn) [Fenpropimorph]
[2]; 0.0025 ppm [mg/L]
  Observed control in % (% Cobs): 0%
[2]; 0.0222 ppm [mg/L]
  Observed control in % (% Cobs): 33%
